Data: ChEMBL document CHEMBL1201862, “PubChem BioAssay data set” (2004)
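Results reflect a 48-hour exposure of cells in 96-well plates to compound at five concentrations. The concentration for 50% growth inhibition is given as GI50.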 Active and inactive are the calls of the source. Rule as the data show it: active = GI50 up to about 1.1 µM and inactive = higher.

Legend:
Test in all cases: growth of human tumour cells (NCI), 48 h
[1] = test system: SK-MEL-2
[2] = test system: NCI-H460
[3] = test system: RXF 393
[4] = test system: NCI-H522
[5] = test system: SK-MEL-28
[6] = test system: U-251
[7] = test system: SNB-78
[8] = test system: HOP-62
[9] = test system: HOP-92
[10] = test system: OVCAR-3
[11] = test system: A498
[12] = test system: SK-MEL-5
[13] = test system: K562
[14] = test system: SNB-19
[15] = test system: SF-539
[16] = test system: NCI-H226
[17] = test system: HCC 2998
[18] = test system: M14
[19] = test system: SF-268
[20] = test system: OVCAR-4
[21] = test system: IGROV-1
[22] = test system: CAKI-1
[23] = test system: LXFL 529
[24] = test system: SF-295
[25] = test system: SNB-75
[26] = test system: OVCAR-8
[27] = test system: UO-31
[28] = test system: HCT-116
[29] = test system: SK-OV-3
[30] = test system: DMS-114
[31] = test system: SN12C
[32] = test system: COLO 205
[33] = test system: ACHN
[34] = test system: XF498
[35] = test system: HT-29
[36] = test system: SW-620
[37] = test system: UACC-62
[38] = test system: CCRF-CEM
[39] = test system: A549
[40] = test system: UACC-257
[41] = test system: Malme-3M
[42] = test system: DMS-273
[43] = test system: HCT-15
[44] = test system: NCI-H23
[45] = test system: KM12
[46] = test system: 786-0
[47] = test system: M19-MEL
[48] = test system: TK-10
[49] = test system: RPMI-8226
[50] = test system: HL-60
[51] = test system: MOLT-4
[52] = test system: SR
[53] = test system: DLD-1

With `COc1cc(C2Oc3cc(-c4oc5cc(O)cc(O)c5c(=O)c4O)ccc3OC2CO)ccc1O` (stereo not drawn) [DEHYDROSILYLBIN] the GI50 [1] was 7.38 µM (inactive), the GI50 [2] was 3.72 µM (inactive) and the GI50 [3] was 2.31 µM (inactive). For the same molecule, the GI50 [4] was 3.03 µM (inactive), the GI50 [5] was 10.1 µM (inactive) and the GI50 [6] was 6.68 µM (inactive). For the same molecule, the GI50 [7] was > 46.6 µM (inactive), the GI50 [8] was 11.2 µM (inactive) and the GI50 [9] was 10.5 µM (inactive). For the same molecule, the GI50 [10] was 21.5 µM (inactive), the GI50 [11] was 9.27 µM (inactive) and the GI50 [12] was 15.4 µM (inactive). The GI50 [13] was 11 µM (inactive), the GI50 [14] was 7.43 µM (inactive) and the GI50 [15] was 4.24 µM (inactive). For the same molecule, the GI50 [16] was 8.51 µM (inactive), the GI50 [17] was 24.8 µM (inactive) and the GI50 [18] was 12.4 µM (inactive). For the same molecule, the GI50 [19] was 7.46 µM (inactive), the GI50 [20] was 20.7 µM (inactive) and the GI50 [21] was 10.9 µM (inactive). The GI50 [22] was 14 µM (inactive), the GI50 [23] was 5.26 µM (inactive) and the GI50 [24] was 10.7 µM (inactive). For the same molecule, the GI50 [25] was 5 µM (inactive), the GI50 [26] was 30.1 µM (inactive) and the GI50 [27] was 2.64 µM (inactive). For the same molecule, the GI50 [28] was 4.71 µM (inactive), the GI50 [29] was 21.4 µM (inactive) and the GI50 [30] was 9.86 µM (inactive). For the same molecule, the GI50 [31] was 10.8 µM (inactive), the GI50 [32] was 26.7 µM (inactive) and the GI50 [33] was 7.64 µM (inactive). For the same molecule, the GI50 [34] was 10.8 µM (inactive), the GI50 [35] was 25.9 µM (inactive) and the GI50 [36] was 8.55 µM (inactive). For the same molecule, the GI50 [37] was 3.42 µM (inactive), the GI50 [38] was 5.77 µM (inactive) and the GI50 [39] was 9.14 µM (inactive). For the same molecule, the GI50 [40] was 32 µM (inactive), the GI50 [41] was 22.8 µM (inactive) and the GI50 [42] was 5.85 µM (inactive). The GI50 [43] was 9.31 µM, the GI50 [44] was 4.3 µM (inactive) and the GI50 [45] was 20.1 µM (inactive). The GI50 [46] was 8.55 µM (inactive), the GI50 [47] was 14.4 µM (inactive) and the GI50 [48] was 10.9 µM (inactive). For the same molecule, the GI50 [49] was 4.41 µM (inactive), the GI50 [50] was 9.48 µM (inactive) and the GI50 [51] was 3.9 µM (inactive). For the same molecule, the GI50 [52] was 4.61 µM (inactive) and the GI50 [53] was 14.5 µM (inactive).
